Experimental data: patent US20260042753A1 (Merck Patent GmbH, priority 2019, published 2026)
Like-named read-outs stand apart in the source and are kept apart here.

Assays:
[1] = molecular target: mutant cKIT (560-576 and V654A) in GIST430/654 cell line (Homo sapiens (Human), UniProt P10721, DEL560-576/V654A); assay: Cellular testing of cKIT mutant inhibitors: phospho-Y307-cKIT Luminex assay in GIST430/654 cells; type: cell-based; details: read-out: GIST 430/654 IC50
How it was run: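 Autophosphorylation of mutant cKIT at Y307 was quantified by a Luminex bead sandwich assay (total-cKIT capture, phosphospecific detection) after 45 min compound exposure in GIST430/654 cells, cultured in medium containing 100 nM imatinib. Signals were normalised to solvent (0.3% DMSO) controls and dose-response curves fitted for IC50.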

c-Kit(V654A) = c-Kit(V654A) (Homo sapiens, UniProt P10721, V654A); assay: c-Kit(V654A) assay; type: biochemical
How it was run: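 Radiometric filter-binding read-out: after 3% phosphoric acid stop, peptide-incorporated 33P on filtermat scintillation-counted. Enzyme: human c-Kit V654A, residues 544–end, N-terminal GST fusion.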

[2] = Table 1, cKIT autophosphorylation, compounds 45 min
[3] = Table 2, corresponding triazole derivatives

mutant cKIT (560-576 and V654A) in GIST430/654 cell line, sequence (P10721 other isoform, or with tags, fused parts or gaps V654A/del 1-25/del 560-576 limits assumed): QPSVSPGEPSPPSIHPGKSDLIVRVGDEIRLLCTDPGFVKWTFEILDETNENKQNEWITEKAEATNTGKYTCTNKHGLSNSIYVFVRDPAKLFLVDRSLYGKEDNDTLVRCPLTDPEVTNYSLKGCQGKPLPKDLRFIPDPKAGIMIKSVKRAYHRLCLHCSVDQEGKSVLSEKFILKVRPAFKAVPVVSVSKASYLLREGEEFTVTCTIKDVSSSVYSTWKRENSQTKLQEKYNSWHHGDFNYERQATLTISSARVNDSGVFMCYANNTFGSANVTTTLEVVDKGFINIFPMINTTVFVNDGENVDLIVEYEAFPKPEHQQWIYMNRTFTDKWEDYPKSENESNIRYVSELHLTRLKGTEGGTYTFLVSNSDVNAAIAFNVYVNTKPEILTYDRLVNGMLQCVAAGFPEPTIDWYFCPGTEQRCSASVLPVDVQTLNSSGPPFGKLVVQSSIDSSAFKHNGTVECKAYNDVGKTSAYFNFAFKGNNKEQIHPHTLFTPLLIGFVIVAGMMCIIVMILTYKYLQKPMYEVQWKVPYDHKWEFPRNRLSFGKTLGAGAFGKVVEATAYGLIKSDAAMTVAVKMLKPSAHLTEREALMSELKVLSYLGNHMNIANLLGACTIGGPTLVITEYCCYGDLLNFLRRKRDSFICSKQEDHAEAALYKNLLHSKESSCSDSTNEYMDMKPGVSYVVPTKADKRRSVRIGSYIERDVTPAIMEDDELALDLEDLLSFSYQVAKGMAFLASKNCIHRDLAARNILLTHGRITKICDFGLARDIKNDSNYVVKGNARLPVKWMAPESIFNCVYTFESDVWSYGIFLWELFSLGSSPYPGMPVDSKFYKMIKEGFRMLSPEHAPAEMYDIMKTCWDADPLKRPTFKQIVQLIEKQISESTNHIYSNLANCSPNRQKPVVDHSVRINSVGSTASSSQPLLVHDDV

SMILES | IC50 [1, 2] [nM] | IC50 (c-Kit(V654A); Table 1, 200 μM ATP) [nM] | IC50 [1, 3] [nM] | IC50 (c-Kit(V654A); [3]) [nM]
COCCOc1cc2[nH]nc(-c3cc(-c4ccc(C(=O)N5CCOC[C@H]5CO)cc4)no3)c2cc1Cl [A67, (4-{5-[5-chloro-6-(2-methoxy-ethoxy)-1H-indazol-3-yl]-isoxazol-3-yl}-phenyl)-((R)-3-hydroxymethyl-morpholin-4-yl)-methanone] | 94 | 0.88 |  | 
COCCOc1cc2[nH]nc(-c3cc(-c4ccc(C(=O)N(C)CCS(C)(=O)=O)cc4)no3)c2cc1F [A150, 4-{5-[5-fluoro-6-(2-methoxyethoxy)-1H-indazol-3-yl]-1,2-oxazol-3-yl}-N-(2-methanesulfonylethyl)-N-methylbenzamide] | 110 | 1.7 |  | 
COCCOc1cc2[nH]nc(-c3cc(-c4ccc(C5CCNCC5(C)C)cc4)no3)c2cc1F (stereo not shown) [A230, 3-{3-[4-(3,3-dimethyl-piperidin-4-yl)-phenyl]-isoxazol-5-yl}-5-fluoro-6-(2-methoxy-ethoxy)-1H-indazole] | 110 | 0.4 |  | 
COCCOc1cc2[nH]nc(-c3cc(-c4ccc(C(=O)N5CCC[C@@H]5CS(C)(=O)=O)cc4)no3)c2cc1F [A55, 5-fluoro-3-(3-{4-[(2R)-2-(methanesulfonylmethyl)pyrrolidine-1-carbonyl]phenyl}-1,2-oxazol-5-yl)-6-(2-methoxyethoxy)-1H-indazole] | 65 | 0.73 |  | 
COCCOc1cc2[nH]nc(-c3cc(-c4ccc(N5CCCS5(=O)=O)cc4)no3)c2cc1F [A138, 2-(4-{5-[5-fluoro-6-(2-methoxyethoxy)-1H-indazol-3-yl]-1,2-oxazol-3-yl}phenyl)-1lambda6,2-thiazolidine-1,1-dione] | 160 | 6.4 |  | 
COCCOc1cc2[nH]nc(-c3cc(-c4ccc(N5CCN(C)CC5)cc4)no3)c2cc1F [A37, 5-fluoro-6-(2-methoxyethoxy)-3-{3-[4-(4-methylpiperazin-1-yl)phenyl]-1,2-oxazol-5-yl}-1H-indazole] | 79 | 2 |  | 
COCCOc1cc2[nH]nc(-c3cc(-c4ccc(C(=O)N5CCC[C@@H]5CO)nc4)no3)c2cc1F [A62, (5-{5-[5-fluoro-6-(2-methoxy-ethoxy)-1H-indazol-3-yl]-isoxazol-3-yl}-pyridin-2-yl)-((R)-2-hydroxymethyl-pyrrolidin-1-yl)-methanone] | 450 | 5.6 |  | 
COCCOc1cc2[nH]nc(-c3cn(-c4ccc(C(=O)N5CC[C@H]5C(C)(C)O)cc4)nn3)c2cc1F [reference compound] |  |  | 240 | 7.5
COCCOc1cc2[nH]nc(-c3cc(-c4ccc(-n5ccccc5=O)cc4)no3)c2cc1F [A41, 1-(4-{5-[5-Fluoro-6-(2-methoxy-ethoxy)-1H-indazol-3-yl]-isoxazol-3-yl}-phenyl)-1H-pyridin-2-one] | 120 | 3.1 |  | 
COCCOc1cc2[nH]nc(-c3cc(-c4ccc(C)nc4)no3)c2cc1F [A22, 5-fluoro-6-(2-methoxyethoxy)-3-[3-(6-methylpyridin-3-yl)-1,2-oxazol-5-yl]-1H-indazole] | 2200 | 32 |  | 
COCCOc1cc2[nH]nc(-c3cc(-c4ccc(N5CC[S+]([O-])CC5)nc4)no3)c2cc1F [A140, 4-(5-{5-[5-fluoro-6-(2-methoxyethoxy)-1H-indazol-3-yl]-1,2-oxazol-3-yl}pyridin-2-yl)-1lambda4-thiomorpholin-1-one] | 46 | 1.6 |  | 
COCCOc1cc2[nH]nc(-c3cc(-c4ccc(C(=O)N(C)C)cn4)no3)c2cc1F [A91, 6-{5-[5-fluoro-6-(2-methoxyethoxy)-1H-indazol-3-yl]-1,2-oxazol-3-yl}-N,N-dimethylpyridine-3-carboxamide] | 290 | 7.2 |  | 
COCCOc1cc2[nH]nc(-c3cc(-c4ccc(N5CCC(O)CC5)cc4)no3)c2cc1F [A128, 1-(4-{5-[5-fluoro-6-(2-methoxyethoxy)-1H-indazol-3-yl]-1,2-oxazol-3-yl}phenyl)piperidin-4-ol] | 100 | 0.79 |  | 

Next, values leading:

IC50 [1, 2] [nM] | IC50 (c-Kit(V654A); Table 1, 200 μM ATP) [nM] | IC50 [1, 3] [nM] | IC50 (c-Kit(V654A); [3]) [nM] | SMILES
45 | 2.1 |  |  | COCCOc1cc2[nH]nc(-c3cc(-c4ccc(C(=O)N5CC(F)C5)cc4)no3)c2cc1F [A26, 5-fluoro-3-{3-[4-(3-fluoroazetidine-1-carbonyl)phenyl]-1,2-oxazol-5-yl}-6-(2-methoxyethoxy)-1H-indazole]
160 | 1.3 |  |  | COCCOc1cc2[nH]nc(-c3cc(-c4ccc(C(=O)N5CC(N6CCN(C)CC6)C5)cc4)no3)c2cc1F [A102, 5-fluoro-6-(2-methoxyethoxy)-3-(3-{4-[3-(4-methylpiperazin-1-yl)azetidine-1-carbonyl]phenyl}-1,2-oxazol-5-yl)-1H-indazole]
20 | 0.55 |  |  | COCCOc1cc2[nH]nc(-c3cc(-c4ccc(C(=O)N5CCC[C@H]5C(C)(C)O)cc4)no3)c2cc1F [A5, 2-[(2S)-1-(4-{5-[5-fluoro-6-(2-methoxyethoxy)-1H-indazol-3-yl]-1,2-oxazol-3-yl}benzoyl)pyrrolidin-2-yl]propan-2-ol]
90 | 2.9 |  |  | COCCOc1cc2[nH]nc(-c3cc(-c4ccc(C(=O)N5CC(N6CCOCC6)C5)cc4)on3)c2cc1F [A146, (4-{3-[5-fluoro-6-(2-methoxy-ethoxy)-1H-indazol-3-yl]-isoxazol-5-yl}-phenyl)-(3-morpholin-4-yl-azetidin-1-yl)-methanone]
110 | 0.52 |  |  | CNCC1CCCN1C(=O)c1ccc(-c2cc(-c3n[nH]c4cc(OCCOC)c(F)cc34)on2)cc1 (stereo not shown) [A222, {[1-(4-{5-[5-fluoro-6-(2-methoxyethoxy)-1H-indazol-3-yl]-1,2-oxazol-3-yl}benzoyl)pyrrolidin-2-yl]methyl}(methyl)amine]
47 | 0.62 |  |  | COCCOc1cc2[nH]nc(-c3cc(-c4ccc(C(=O)N5CC(c6cnn(C)c6)C5)cc4)no3)c2cc1F [A218, 5-fluoro-6-(2-methoxyethoxy)-3-(3-{4-[3-(1-methyl-1H-pyrazol-4-yl)azetidine-1-carbonyl]phenyl}-1,2-oxazol-5-yl)-1H-indazole]
57 | 0.88 |  |  | COCCOc1cc2[nH]nc(-c3cc(-c4ccc(C(=O)N5CCC[C@H]5CO)cc4)no3)c2cc1F [A51, [(2S)-1-(4-{5-[5-fluoro-6-(2-methoxyethoxy)-1H-indazol-3-yl]-1,2-oxazol-3-yl}benzoyl)pyrrolidin-2-yl]methanol]
290 | 1.4 |  |  | COCCOc1cc2[nH]nc(-c3cc(-c4ccc(C(=O)N5CC(N6CC7(COC7)C6)C5)cc4)no3)c2cc1F [A187, 5-fluoro-6-(2-methoxyethoxy)-3-f{3-[4-(3-f{2-oxa-6-azaspiro[3.3]heptan-6-yl}azetidine-1-carbonyl)phenyl]-1,2-oxazol-5-yl}-1H-indazole]
64 | 0.88 |  |  | COCCOc1cc2[nH]nc(-c3cc(-c4ccc(C(=O)N5CC[C@H]5CS(C)(=O)=O)cc4)no3)c2cc1F [A152, 5-fluoro-3-(3-{4-[(2S)-2-(methanesulfonylmethyl)azetidine-1-carbonyl]phenyl}-1,2-oxazol-5-yl)-6-(2-methoxyethoxy)-1H-indazole]
40 | 1 |  |  | COCCOc1cc2[nH]nc(-c3cc(-c4ccc(C(=O)N5CC(C)(N(C)C)C5)cc4)no3)c2cc1F [A181, 1-(4-{5-[5-fluoro-6-(2-methoxyethoxy)-1H-indazol-3-yl]-1,2-oxazol-3-yl}benzoyl)-N,N,3-trimethylazetidin-3-amine]
87 | 0.96 |  |  | COCCOc1cc2[nH]nc(-c3cc(-c4ccc(C(=O)N5CC(c6nc(C)no6)C5)cc4)no3)c2cc1F [A166, 5-fluoro-6-(2-methoxyethoxy)-3-(3-{4-[3-(3-methyl-1,2,4-oxadiazol-5-yl)azetidine-1-carbonyl]phenyl}-1,2-oxazol-5-yl)-1H-indazole]
68 | 1.2 |  |  | COCCOc1cc2[nH]nc(-c3cc(-c4ccc(N5CCOCC5=O)cc4)no3)c2cc1F [A139, 4-(4-{5-[5-fluoro-6-(2-methoxyethoxy)-1H-indazol-3-yl]-1,2-oxazol-3-yl}phenyl)morpholin-3-one]
73 | 0.92 |  |  | COCCOc1cc2[nH]nc(-c3cc(-c4ccc(C(=O)N5CCCN(C6COC6)CC5)cc4)no3)c2cc1F [A198, 5-fluoro-6-(2-methoxyethoxy)-3-(3-{4-[4-(oxetan-3-yl)-1,4-diazepane-1-carbonyl]phenyl}-1,2-oxazol-5-yl)-1H-indazole]
32 | 1.3 |  |  | COCCOc1cc2[nH]nc(-c3cc(-c4ccc(C(=O)N5CCC56COC6)cc4)no3)c2cc1F [A112, 5-fluoro-6-(2-methoxyethoxy)-3-[3-(4-{6-oxa-1-azaspiro[3.3]heptane-1-carbonyl}phenyl)-1,2-oxazol-5-yl]-1H-indazole]
560 | 1.4 |  |  | COCCOc1cc2[nH]nc(-c3cc(-c4ccc(C(=O)N5C[C@H]6CC(=O)N[C@H]6C5)cc4)no3)c2cc1F (relative stereo) [A203, (cis)-5-(4-{5-[5-fluoro-6-(2-methoxyethoxy)-1H-indazol-3-yl]-1,2-oxazol-3-yl}benzoyl)-octahydropyrrolo[2,3-c]pyrrol-2-one]
21 | 0.29 |  |  | COCCOc1cc2[nH]nc(-c3cc(-c4ccc(C(=O)N5CCC6(CCOCC6)C5)cc4)no3)c2cc1F [A159, 2-(4-{5-[5-fluoro-6-(2-methoxyethoxy)-1H-indazol-3-yl]-1,2-oxazol-3-yl}benzoyl)-8-oxa-2-azaspiro[4.5]decane]
